pIC50: −log10 of the molar value. “Also recorded” adds a separate entry of the source. Read-outs that look alike come from different tables or passages of the source.
Key:
[1] = biological target: T1, TRPV1 (Homo sapiens, UniProt Q8NER1); test: Citric acid effect on Ca+2 influx in hTRPV1/CHO cells; assay type: cell-based; conditions: data not shown
T1 construct: expressed in transfected cells
Experimental: (§1) Human lung fibroblast cells, CCD19-Lu (ATCC CCL-210) were obtained from American Type Culture Collection (ATCC; Rockville, MD, USA) and cultured in MEM supplemented with 10% FBS. Human pulmonary alveolar epithelial cell line A549 (ATCC CCL-185) was also obtained from ATCC and maintained in DMEM F-12 supplemented with 10% FBS. Both the cell types were cultured at 37°C in humidified air containing 5% CO2. Chinese hamster ovary (CHO) cells stably expressing human TRPA1 (hTRPA1/CHO), TRPV1 (hTRPV1/CHO), TRPV3 (hTRPV3/CHO), TRPV4 (hTRPV4/CHO and TRPM8 (hTRPM8/CHO were generated in-house and maintained in DMEM F-12 supplemented with 10% FBS and G418.
(§2) Fluorimetric and radiometric Ca^+2 influx assay was performed as described earlier. GRC 17536, GRC 17770, compound 7 or GRC 6211 was added to the cells 15 minutes prior to addition of agonist. Citric acid stock solution (1 M) was prepared in dH2O. Subsequent dilutions were made in Ca^+2, Mg^+2 free PBS (pH 7.3). No significant change in pH was observed upto 10 mM citric acid. At 30 mM concentration of citric acid, the pH of the solution dropped to 5.5. TLR ligands - LPS (10 µg/ml, TLR4), loxoribine (10 µM, TLR7) and ssRNA40 (1 µg/ml, TLR8) were dissolved in media and added to the cells for 16–18 hours. […]

[2] = biological target: T2, TRPA1 (Homo sapiens, UniProt O75762); test: Citric acid-induced Ca+2 influx in hTRPA1/CHO cells; assay type: cell-based; set-up: expressed in transfected cells
T2 sequence (O75762 whole entry): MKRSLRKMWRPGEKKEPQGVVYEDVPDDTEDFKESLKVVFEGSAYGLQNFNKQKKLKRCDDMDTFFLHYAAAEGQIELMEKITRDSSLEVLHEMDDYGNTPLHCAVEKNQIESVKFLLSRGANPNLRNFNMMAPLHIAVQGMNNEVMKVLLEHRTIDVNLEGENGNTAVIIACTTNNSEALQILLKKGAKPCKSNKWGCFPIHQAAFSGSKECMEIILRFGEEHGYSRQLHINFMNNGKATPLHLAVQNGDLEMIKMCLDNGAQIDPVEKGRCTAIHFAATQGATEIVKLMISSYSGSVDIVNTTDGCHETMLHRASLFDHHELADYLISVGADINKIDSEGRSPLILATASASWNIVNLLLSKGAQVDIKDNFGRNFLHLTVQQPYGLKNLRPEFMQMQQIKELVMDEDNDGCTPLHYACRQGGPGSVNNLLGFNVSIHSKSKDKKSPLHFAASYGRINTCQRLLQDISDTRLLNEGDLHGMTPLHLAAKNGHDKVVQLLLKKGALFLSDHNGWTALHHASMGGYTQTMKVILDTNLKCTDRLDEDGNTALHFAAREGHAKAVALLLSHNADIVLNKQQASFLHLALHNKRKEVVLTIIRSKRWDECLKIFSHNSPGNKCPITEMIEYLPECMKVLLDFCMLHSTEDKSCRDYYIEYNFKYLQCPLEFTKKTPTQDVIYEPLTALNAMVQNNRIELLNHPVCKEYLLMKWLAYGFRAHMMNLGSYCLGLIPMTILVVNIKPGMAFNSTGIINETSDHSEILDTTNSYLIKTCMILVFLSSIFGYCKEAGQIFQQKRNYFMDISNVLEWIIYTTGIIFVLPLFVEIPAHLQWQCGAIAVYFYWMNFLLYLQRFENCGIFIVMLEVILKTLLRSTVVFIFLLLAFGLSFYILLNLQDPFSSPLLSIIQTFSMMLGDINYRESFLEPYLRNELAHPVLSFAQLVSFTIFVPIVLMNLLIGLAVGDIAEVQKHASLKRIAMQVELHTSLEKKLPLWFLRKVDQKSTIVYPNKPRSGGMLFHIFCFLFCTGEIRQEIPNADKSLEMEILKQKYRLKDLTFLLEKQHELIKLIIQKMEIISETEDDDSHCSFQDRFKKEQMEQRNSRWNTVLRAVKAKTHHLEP
Experimental: as §1
(§3) Fluorimetric and radiometric Ca^+2 influx assay was performed as described earlier. GRC 17536, GRC 17770, compound 7 or GRC 6211 was added to the cells 15 minutes prior to addition of agonist. Citric acid stock solution (1 M) was prepared in dH2O. Subsequent dilutions were made in Ca^+2, Mg^+2 free PBS (pH 7.3). No significant change in pH was observed upto 10 mM citric acid. At 30 mM concentration of citric acid, the pH of the solution dropped to 5.5. TLR ligands - LPS (10 µg/ml, TLR4), loxoribine (10 µM, TLR7) and ssRNA40 (1 µg/ml, TLR8) were dissolved in media and added to the cells for 16–18 hours. TRP selectivity of GRC 17536 and compound 7 was performed for TRPV1, TRPV3, TRPV4 and TRPM8 using Capsaicin (1 µM), 2-APB (1 mM), 4α-PDD (30 µM) and Icilin (250 nM) respectively, as agonist.

[3] = biological target: T2, TRPA1; test: Citric acid-induced Ca+2 influx in CCD19-Lu cells; assay type: cell-based; set-up: A549 cells have been reported to express endogenous TRPA1; host or cells: A549
Experimental: as §1, §3

[4] = biological target: T2, TRPA1; test: Citric acid-induced Ca+2 influx in A549 cells; assay type: cell-based; set-up: A549 cells have been reported to express endogenous TRPA1; host or cells: A549
Experimental: as §1, §3

[5] = test system: citric acid induced cough response; test: Citric acid induced conscious cough model; assay type: in vivo, guinea pig; conditions: 2 h before citric acid aerosol (0.4 M); for Inhibition of cough response: 30 mg/kg i.p.; for Inhibition of cough compared to vehicle: coughs recorded 10 minutes
Experimental: Male Hartley guinea pigs (200–600 g, Harlan, UK) were acclimatized in cages (20–22°C, with a light/dark cycle of 12/12 hours) before beginning of the experiments and were maintained on an ad lib standard guinea pig pellet diet and water containing dietary amounts of ascorbic acid.
Cough was detected both by pressure change and by sound and recorded with a Buxco cough analyzer (Buxco, Wilmington, NC, USA) as described earlier. Guinea pigs were randomly assigned to various test groups and were treated with different doses of GRC 17536 or Dextromethorphan i.p. before tussive challenge. The Vehicle control group received only 0.5% methyl cellulose. Two hours after i.p. administration of vehicle or test compounds, animals were placed in individual whole body plethysmographs and were exposed to citric acid aerosol (0.4 M) and the incidences of cough were recorded for 10 minutes with the help of Buxco cough analyzer.
For in vitro experiments, data was analyzed using GraphPad Prism 3.0 (GraphPad Software Inc. San Diego, CA, USA). For in vivo experiment, data from the treatment groups were compared with the control group. Mean values were statistically analyzed by one-way analysis of variance (ANOVA) followed by the Dunnett's Multiple Comparisons Test to evaluate significant differences between groups.

[6] = biological target: T1, TRPV1; test: TRP selectivity, hTRPV1/CHO, Capsaicin as agonist; assay type: cell-based; conditions: agonist Capsaicin (1 µM)
Experimental: as §1, §2

[7] = biological target: T3, TRPV3 (Homo sapiens, UniProt Q8NET8); test: TRP selectivity, hTRPV3/CHO, 2-APB as agonist; assay type: cell-based; conditions: agonist 2-APB (1 mM)
T3 construct: expressed in transfected cells
T3 sequence (Q8NET8 1-790): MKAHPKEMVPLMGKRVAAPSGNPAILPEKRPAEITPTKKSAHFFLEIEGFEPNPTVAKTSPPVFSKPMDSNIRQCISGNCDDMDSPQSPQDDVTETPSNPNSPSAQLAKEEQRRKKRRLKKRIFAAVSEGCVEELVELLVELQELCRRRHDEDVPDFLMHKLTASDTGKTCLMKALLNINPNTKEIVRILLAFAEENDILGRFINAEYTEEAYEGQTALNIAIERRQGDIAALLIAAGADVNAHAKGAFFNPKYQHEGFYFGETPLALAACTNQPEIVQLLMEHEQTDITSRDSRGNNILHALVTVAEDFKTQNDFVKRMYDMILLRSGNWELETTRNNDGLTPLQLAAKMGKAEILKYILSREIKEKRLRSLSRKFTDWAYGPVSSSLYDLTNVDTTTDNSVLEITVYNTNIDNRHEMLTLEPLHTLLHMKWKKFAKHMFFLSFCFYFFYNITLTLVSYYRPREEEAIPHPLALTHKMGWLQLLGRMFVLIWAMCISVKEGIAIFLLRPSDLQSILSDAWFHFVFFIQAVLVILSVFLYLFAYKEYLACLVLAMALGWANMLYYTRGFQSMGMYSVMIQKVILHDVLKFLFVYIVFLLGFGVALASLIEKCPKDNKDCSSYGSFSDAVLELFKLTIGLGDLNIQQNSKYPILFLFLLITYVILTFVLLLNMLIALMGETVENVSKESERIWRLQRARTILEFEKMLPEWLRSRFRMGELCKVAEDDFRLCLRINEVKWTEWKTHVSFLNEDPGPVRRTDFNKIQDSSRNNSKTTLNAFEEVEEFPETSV
Experimental: as §1, §2

[8] = biological target: T4, TRPV4 (Homo sapiens, UniProt Q9HBA0); test: TRP selectivity, hTRPV4/CHO, 4α-PDD as agonist; assay type: cell-based; conditions: agonist 4α-PDD (30 µM)
T4 construct: expressed in transfected cells
T4 sequence (Q9HBA0 whole entry): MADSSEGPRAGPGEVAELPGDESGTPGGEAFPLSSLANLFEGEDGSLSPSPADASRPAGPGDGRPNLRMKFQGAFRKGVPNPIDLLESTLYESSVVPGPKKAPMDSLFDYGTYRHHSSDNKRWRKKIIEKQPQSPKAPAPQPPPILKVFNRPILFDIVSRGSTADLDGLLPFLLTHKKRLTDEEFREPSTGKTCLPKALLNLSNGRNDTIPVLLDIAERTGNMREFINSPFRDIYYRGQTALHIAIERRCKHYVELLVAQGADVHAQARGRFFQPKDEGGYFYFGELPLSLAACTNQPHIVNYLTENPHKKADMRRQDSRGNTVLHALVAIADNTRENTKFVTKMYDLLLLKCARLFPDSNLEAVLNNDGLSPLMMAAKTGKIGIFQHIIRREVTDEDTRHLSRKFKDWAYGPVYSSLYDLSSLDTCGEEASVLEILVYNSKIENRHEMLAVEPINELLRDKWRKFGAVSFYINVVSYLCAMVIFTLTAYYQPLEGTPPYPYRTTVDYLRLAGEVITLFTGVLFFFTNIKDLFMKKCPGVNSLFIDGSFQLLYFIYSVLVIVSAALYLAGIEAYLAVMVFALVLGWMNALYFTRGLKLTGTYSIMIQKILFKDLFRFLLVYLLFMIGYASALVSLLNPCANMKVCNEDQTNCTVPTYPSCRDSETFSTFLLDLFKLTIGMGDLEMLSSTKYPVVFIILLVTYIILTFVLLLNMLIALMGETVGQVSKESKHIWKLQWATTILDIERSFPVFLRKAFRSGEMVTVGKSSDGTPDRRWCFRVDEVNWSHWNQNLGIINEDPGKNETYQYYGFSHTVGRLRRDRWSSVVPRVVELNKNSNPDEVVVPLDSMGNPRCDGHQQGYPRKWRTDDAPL
Experimental: as §1, §2

[9] = biological target: T5, TRPM8 (Homo sapiens, UniProt Q7Z2W7); test: TRP selectivity, hTRPM8/CHO, Icilin as agonist; assay type: cell-based; conditions: agonist Icilin (250 nM)
T5 construct: expressed in transfected cells
T5 sequence (Q7Z2W7 whole entry): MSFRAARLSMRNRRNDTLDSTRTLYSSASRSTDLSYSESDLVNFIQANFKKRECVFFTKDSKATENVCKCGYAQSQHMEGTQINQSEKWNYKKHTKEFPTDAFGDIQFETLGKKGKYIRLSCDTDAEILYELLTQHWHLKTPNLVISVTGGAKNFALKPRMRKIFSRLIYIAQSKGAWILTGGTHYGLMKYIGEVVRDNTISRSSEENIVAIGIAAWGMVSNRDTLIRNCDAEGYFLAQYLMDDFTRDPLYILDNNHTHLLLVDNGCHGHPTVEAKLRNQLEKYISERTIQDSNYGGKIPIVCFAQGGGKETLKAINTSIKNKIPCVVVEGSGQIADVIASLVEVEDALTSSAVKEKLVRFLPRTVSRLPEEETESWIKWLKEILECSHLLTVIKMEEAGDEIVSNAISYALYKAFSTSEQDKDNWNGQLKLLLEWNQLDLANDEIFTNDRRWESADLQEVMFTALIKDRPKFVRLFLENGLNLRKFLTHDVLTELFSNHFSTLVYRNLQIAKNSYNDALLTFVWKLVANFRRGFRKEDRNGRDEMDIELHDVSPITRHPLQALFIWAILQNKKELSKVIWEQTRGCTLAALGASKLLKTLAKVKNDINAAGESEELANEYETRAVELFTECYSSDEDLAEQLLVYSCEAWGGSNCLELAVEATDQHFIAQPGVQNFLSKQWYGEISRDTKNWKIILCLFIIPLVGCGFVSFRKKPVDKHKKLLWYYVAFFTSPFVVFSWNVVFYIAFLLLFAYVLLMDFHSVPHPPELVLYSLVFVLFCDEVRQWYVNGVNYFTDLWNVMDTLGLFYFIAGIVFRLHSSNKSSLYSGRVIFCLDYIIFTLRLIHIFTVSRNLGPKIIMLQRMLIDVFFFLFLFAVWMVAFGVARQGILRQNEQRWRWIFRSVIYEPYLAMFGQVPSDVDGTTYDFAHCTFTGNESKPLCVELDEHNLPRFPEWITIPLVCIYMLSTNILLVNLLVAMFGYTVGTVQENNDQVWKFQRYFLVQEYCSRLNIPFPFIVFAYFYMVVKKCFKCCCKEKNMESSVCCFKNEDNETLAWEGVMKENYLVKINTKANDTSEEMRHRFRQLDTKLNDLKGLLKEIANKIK
Experimental: as §1, §2

[10] = Plasma concentration in the cough model; assay type: in vivo; conditions: at the EDmax dose (∼89% suppression of cough), guinea pig, i.p.
[11] = biological target: T2, TRPA1; set-up: method as in PMID 21848366; conditions: CCD19-Lu cells; read-out: IC50 with AITC as agonist; cited from earlier work
[12] = biological target: T2, TRPA1; test: TLR ligand-enhanced 45Ca+2 uptake in hTRPA1/CHO cells; assay type: cell-based; set-up: expressed in transfected cells
Experimental: as §1, §3

[13] = biological target: T2, TRPA1; test: TLR ligand-enhanced 45Ca+2 uptake in A549 cells; assay type: cell-based; set-up: A549 cells have been reported to express endogenous TRPA1; host or cells: A549
Experimental: as §1, §3

[14] = biological target: T2, TRPA1; set-up: A549 cells have been reported to express endogenous TRPA1; host or cells: A549; method as in PMID 21848366; conditions: A549 cells; read-out: IC50 with AITC as agonist; cited from earlier work
[15] = test system: TRPA1 mRNA; test: Real-time RT-PCR of TRPA1 mRNA in hTRPA1/CHO cells; assay type: cell-based, human; conditions: pre-incubation with TLR ligand
Experimental: Total RNA was extracted from hTRPA1/CHO cells using TRI reagent (Sigma, St. Louise, MO, USA). 3 µg of RNA was reverse transcribed using iScript select cDNA synthesis kit (Biorad Hercules, CA, USA) according to the manufacturer's instructions to produce single-stranded cDNA. RT-PCR was performed with an real-time thermal cycler Eppendorf Mastercycler Ep (Eppendorf AG, Hamburg, Germany) using iTaq SYBR Green Supermix with ROX kit (Biorad Hercules, CA, USA) with human TRPA1 specific primers: 5′-[…]-3′(sense primer) and 5′-CTTTTATGTCTACTTG GGCACCTT-3′(antisense primer). RT-PCR reaction was carried out for 40 cycles at 94°C for 30 s, 60°C for 15 s and 60°C for 60 s. Data was interpreted using 2^(-ΔΔCT) Livak method of analysis.

[16] = highest concentration of inducer, one range printed for CCD19-Lu and A549 together
[17] = antagonist added 15 minutes prior to agonist, read-out: IC50, inhibition of citric acid induced Ca+2 influx

T1 sequence (Q8NER1 whole entry): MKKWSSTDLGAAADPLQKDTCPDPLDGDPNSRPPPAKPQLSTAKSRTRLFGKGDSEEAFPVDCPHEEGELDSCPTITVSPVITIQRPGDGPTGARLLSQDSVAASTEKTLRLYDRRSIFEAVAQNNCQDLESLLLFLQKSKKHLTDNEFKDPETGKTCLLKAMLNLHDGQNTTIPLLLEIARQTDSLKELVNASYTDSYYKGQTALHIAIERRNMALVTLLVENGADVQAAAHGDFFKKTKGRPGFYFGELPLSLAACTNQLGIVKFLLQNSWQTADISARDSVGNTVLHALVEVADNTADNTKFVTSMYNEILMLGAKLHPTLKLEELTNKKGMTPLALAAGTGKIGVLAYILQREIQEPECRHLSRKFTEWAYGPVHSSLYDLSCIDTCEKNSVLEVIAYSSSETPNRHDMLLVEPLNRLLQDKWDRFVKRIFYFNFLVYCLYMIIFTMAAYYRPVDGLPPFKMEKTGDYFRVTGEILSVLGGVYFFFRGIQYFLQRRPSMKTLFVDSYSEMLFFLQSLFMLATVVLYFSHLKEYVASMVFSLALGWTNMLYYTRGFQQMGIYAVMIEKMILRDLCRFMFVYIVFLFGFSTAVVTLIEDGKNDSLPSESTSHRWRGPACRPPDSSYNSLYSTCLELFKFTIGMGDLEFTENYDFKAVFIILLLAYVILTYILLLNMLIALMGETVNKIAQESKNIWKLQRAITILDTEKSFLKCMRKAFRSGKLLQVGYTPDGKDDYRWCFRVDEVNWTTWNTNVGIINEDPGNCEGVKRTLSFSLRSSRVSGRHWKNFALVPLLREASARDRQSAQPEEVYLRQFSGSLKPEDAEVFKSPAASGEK

O=C(O)CC(O)(CC(=O)O)C(=O)O [citric acid]
Ca+2 influx response to citric acid [1]: lack of any significant response; also recorded: did not observe any increase | Citric acid concentration of peak Ca+2 influx [2]: 3 mM | Citric acid concentration that elicited a drop in Ca+2 influx [2]: 10 mM | Ca+2 influx over basal ([2]; highest concentration of citric acid): ~40 fold | Citric acid concentration of maximum Ca+2 influx [3]: 10 mM | Citric acid concentration that elicited a drop in Ca+2 influx [3]: 30 mM | Induction of Ca+2 influx over basal [3, 16]: 4–20 fold | Citric acid concentration of peak Ca+2 influx [4]: 3 mM | Citric acid concentration that elicited a drop in Ca+2 influx [4]: 5 mM | Induction of Ca+2 influx over basal [4, 16]: 4–20 fold

COc1ccc2c(c1)[C@]13CCCC[C@@H]1[C@H](C2)N(C)CC3 [Dextromethorphan, reference compound]
Inhibition of cough response [5]: 66%

Cn1c(=O)c2c(CC(=O)Nc3nc(-c4ccc(F)c(C(F)(F)F)c4F)cs3)csc2n(C)c1=O [GRC 17536]
% Inhibition at 1 µM, TRPV1 [6]: 5.6% | % Inhibition at 1 µM, TRPV3 [7]: 27.3% | % Inhibition at 1 µM, TRPV4 [8]: 8.2% | % Inhibition at 1 µM, TRPM8 [9]: 8.6% | Inhibition of cough response [5]: no significant protective response | Inhibition of cough compared to vehicle ([5]; 60 mg/kg i.p.): 79% | Inhibition of cough compared to vehicle ([5]; 100 mg/kg i.p.): 89% | Free mean plasma concentration [10]: around its in vitro IC50 value | pIC50 [11]: 8.57 | pIC50 [2, 17]: 8.34 | Inhibition of LPS + AITC induced 45Ca+2 uptake ([12]; hTRPA1/CHO, 10 nM): 51.3% | Inhibition of Loxoribine + AITC induced 45Ca+2 uptake ([12]; hTRPA1/CHO, 10 nM): 56.6% | Inhibition of ssRNA40 + AITC induced 45Ca+2 uptake ([12]; hTRPA1/CHO, 10 nM): 63.0% | Inhibition of TLR ligand-enhanced 45Ca+2 uptake (summary) ([12]; hTRPA1/CHO, 10 nM, stated for both cell types): ~50% | Inhibition of 45Ca+2 uptake at the highest concentration (summary) ([12]; hTRPA1/CHO, 1 µM): Complete inhibition | Inhibition of LPS + AITC induced 45Ca+2 uptake ([12]; hTRPA1/CHO, 1 µM): 98.4% | Inhibition of Loxoribine + AITC induced 45Ca+2 uptake ([12]; hTRPA1/CHO, 1 µM): 98.6% | Inhibition of ssRNA40 + AITC induced 45Ca+2 uptake ([12]; hTRPA1/CHO, 1 µM): 96.1% | pIC50 [3, 17]: 8.09 | pIC50 [4, 17]: 8.30 | Inhibition of LPS + AITC induced 45Ca+2 uptake ([13]; A549, 10 nM): 40.4% | Inhibition of Loxoribine + AITC induced 45Ca+2 uptake ([13]; A549, 10 nM): 68.1% | Inhibition of ssRNA40 + AITC induced 45Ca+2 uptake ([13]; A549, 10 nM): 53.2% | Inhibition of TLR ligand-enhanced 45Ca+2 uptake (summary) ([13]; A549, 10 nM, stated for both cell types): ~50% | Inhibition of 45Ca+2 uptake at the highest concentration (summary) ([13]; A549, 1 µM): Complete inhibition | Inhibition of LPS + AITC induced 45Ca+2 uptake ([13]; A549, 1 µM): 95.3% | Inhibition of Loxoribine + AITC induced 45Ca+2 uptake ([13]; A549, 1 µM): 97.4% | Inhibition of ssRNA40 + AITC induced 45Ca+2 uptake ([13]; A549, 1 µM): 98.7% | pIC50 [14]: 8.69

C=CCn1c(=O)n([C@@H]2O[C@H](CO)[C@@H](O)[C@H]2O)c2nc(N)[nH]c(=O)c21 [Loxoribine, reference compound]
TRPA1 mRNA levels compared to control [15]: enhance TRPA1 expression | Increase in 45Ca+2 uptake over AITC alone ([12]; hTRPA1/CHO, pre-treatment Loxoribine 10 µM or ssRNA40 1 µg/ml, 16-18 hours): 20% | Increase in 45Ca+2 uptake by TLR ligand alone ([12]; ligand alone, no TRPA1 agonist, 'these cells', data not shown): did not show any increase | Enhancement of AITC mediated 45Ca+2 uptake ([13]; A549 cells, TLR ligand pre-treatment 16-18 hours): 30%

O=C(Nc1cccc2cnccc12)N[C@@H]1CC2(CCC2)Oc2ccc(F)cc21 [GRC 6211]
Inhibition of citric acid induced increase in Ca+2 ([3]; up to 10 µM antagonist): failed to inhibit | Inhibition of citric acid induced increase in Ca+2 ([4]; up to 10 µM antagonist): failed to inhibit

— paper PMC4018403, “Transient Receptor Potential Ankyrin 1 Receptor Activation In Vitro and In Vivo by Pro-tussive Agents: GRC 17536 as a Promising Anti-Tussive Therapeutic” (PLoS ONE, 2014)
